From patent US10899741B2, “3,4-bipyridyl pyrazole derivative, and preparation method therefor and medical application thereof” (Jiangsu Hengrui Medicine Co., Ltd., priority 2016, dated 2021)

Tests used:
TGFβRI kinase ALK5 = TGFβRI kinase ALK5 (Homo sapiens (Human), UniProt P36897); assay: Inhibition of TGFβRI kinase ALK5 activity (ADP-Glo kit); assay type: biochemical; settings: ATP 50 μM, 27° C. 2.5 hours
Experimental: The inhibition effect of TGFβRI kinase activity in vitro was determined by the following method.
The inhibition effect of the compounds of the present invention on TGFβRI kinase ALK5 activity was determined by the following experimental method:
(§1) TGFβRI kinase assay kit (V4093, Promega) was used to assay enzyme activity. 2 μl of enzyme solution (the final concentration of enzyme in the reaction system was 2 ng/μL) formulated with reaction buffer (40 mM Tris pH 7.5, 20 mM MgCl2, 0.1 mg/ml BSA), 1 μl of a 3-fold gradient dilution of the compounds dissolved in 5% DMSO, and 2 μl of a mixed solution of ATP and TGFβRI substrate peptide (the final concentration of ATP was 50 μM, and the final concentration of substrate was 0.2 μg/μL) were added successively to a 384-well plate (4514, Corning). After reaction at 27° C. for 2.5 hours, 5 μl of ADP-Glo solution in the kit was added to each well, then the plate was placed at 27° C. for 40 minutes. 10 μl of kinase assay reagent was then added to each well, then the plate was placed at 27° C. for 30 minutes. The chemiluminescence signal values were measured with a Victor 3 (PerkinElmer) multi-function microplate reader. The IC50 values of the compounds for enzyme inhibition were calculated using Graphpad prism software based on each concentration of the compound and the corresponding signal value thereof.

recombinant human VEGFR2 = recombinant human VEGFR2 (Homo sapiens (Human), UniProt P35968); assay: Inhibition of VEGFR2 kinase activity (Z'-LYTE kit); assay type: biochemical; settings: ATP 50 μM, 25° C. 2 hours
Experimental: The inhibition effect of VEGFR2 kinase activity in vitro was determined by the following method.
The inhibition effect of the compounds of the present invention on VEGFR2 kinase activity was determined by the following experimental method:
Z'-LYTEC® Kinase Assay Kit—Tyrosine 1 Peptide (PV3190, Invitrogen) was used to assay enzyme activity. 5 μl of recombinant human VEGFR2 enzyme (PV3660, Invitrogen) and VEGFR2 substrate polypeptide (in the reaction system, the final concentration of enzyme was 0.14 ng/μL, and the final concentration of substrate was 2 μM) formulated with reaction buffer (50 mM HEPES pH7.5, 10 mM MgCl2, 1 mM EGTA, 0.05% BRIJ-35), 2.5 μl of a 2-fold gradient dilution of the compounds dissolved in 5% DMSO, and 2.5 μL of ATP solution (the final concentration of ATP was 50 μM) were added successively to a 384-well plate (4513, Corning). After reaction at 25° C. for 2 hours, 5 μL of detection reagent was added to each well. After the plate was placed at 25° C. for 1 hour, the fluorescence signal values at emission wavelengths of 445 nm and 520 nm were measured with a NOVOstar (BMG) multi-function microplate reader. The IC50 values of the compounds for enzyme inhibition were calculated using Graphpad prism software based on each concentration of the compound and the corresponding signal value thereof.

p38α kinase = p38α kinase (Homo sapiens (Human), UniProt Q16539); assay: Inhibition of p38α kinase activity (ADP-Glo kit); assay type: biochemical; settings: ATP 50 μM, 27° C. 2.5 hours
Experimental: The inhibition of p38α kinase activity in vitro was determined by the following method.
The inhibition effect of the compounds of the present invention on p38α kinase activity was determined by the following experimental method:
as §1, with “p38α kinase” for “TGFβRI kinase”, “kit (V9591,” for “kit (V4093,”, “was 0.5” for “was 2”, “and p38” for “and TGFβRI”, “compounds on” for “compounds for”

[1] = Pharmacokinetics assay in rats after intragastrical administration; assay type: in vivo; settings: both sexes, Sprague-Dawley, rat, plasma, po, SD rats; for Vd/F / AUC / CL/F / half-life / MRT: 2.0 mg/kg; for Vd/F: read-out: Apparent distribution volume Vz/F; for AUC: read-out: Area under curve AUC; for CL/F: read-out: Clearance CLz/F; for half-life: read-out: Half-life T1/2 (converted); for MRT: read-out: Residence time MRT
Experimental: Rats were used as test animals. The drug concentration in plasma at different time points was determined by LC/MS/MS method after intragastrical administration of the compounds of Examples 1 and 2 to rats. The pharmacokinetic behavior of the compounds of the present invention was studied and evaluated in rats.
Eight healthy adult Sprague-Dawley (SD) rats (half male and half female) were purchased from SINO-BRITISH SIPPR/BK LAB. ANIMAL LTD., CO, with Certificate No.: SCXK (Shanghai) 2008-0016, and equally divided into 2 groups (4 rats per group).
A certain amount of the test drug was weighed, and added with 5% by volume of DMSO, 5% by volume of Tween 80, and 90% by volume of physiological saline to prepare a 0.2 mg/mL colorless, clear and transparent solution.
After an overnight fast, SD rats were administered intragastrically the test drugs at an administration dosage of 2.0 mg/kg and an administration volume of 10.0 mL/kg.
The rats were intragastrically administered the compounds of Examples 1 and 2. 0.2 mL of blood was taken from the orbital sinus before administration and at 0.5, 1.0, 2.0, 4.0, 6.0, 8.0, 11.0 and 24.0 hours after administration. The samples were stored in heparinized tubes, and centrifuged for 10 minutes at 4° C. at 3,500 rpm to separate the blood plasma. The plasma samples were stored at −20° C. The rats were fed 2 hours after administration.
The content of the test compounds in the plasma of rats after intragastrical administration of the test drugs at different concentrations was determined: 25 μL of rat plasma at each time after administration was taken, added with 30 μL (100 ng/mL) of the internal standard solution of camptothecin and 225 μL of acetonitrile, vortex-mixed for 5 minutes, and centrifuged for 10 minutes (3600 rpm). 5.0 μL of the supernatant was taken from the plasma samples for LC/MS/MS analysis.

recombinant human VEGFR2, sequence (P35968 20-1356): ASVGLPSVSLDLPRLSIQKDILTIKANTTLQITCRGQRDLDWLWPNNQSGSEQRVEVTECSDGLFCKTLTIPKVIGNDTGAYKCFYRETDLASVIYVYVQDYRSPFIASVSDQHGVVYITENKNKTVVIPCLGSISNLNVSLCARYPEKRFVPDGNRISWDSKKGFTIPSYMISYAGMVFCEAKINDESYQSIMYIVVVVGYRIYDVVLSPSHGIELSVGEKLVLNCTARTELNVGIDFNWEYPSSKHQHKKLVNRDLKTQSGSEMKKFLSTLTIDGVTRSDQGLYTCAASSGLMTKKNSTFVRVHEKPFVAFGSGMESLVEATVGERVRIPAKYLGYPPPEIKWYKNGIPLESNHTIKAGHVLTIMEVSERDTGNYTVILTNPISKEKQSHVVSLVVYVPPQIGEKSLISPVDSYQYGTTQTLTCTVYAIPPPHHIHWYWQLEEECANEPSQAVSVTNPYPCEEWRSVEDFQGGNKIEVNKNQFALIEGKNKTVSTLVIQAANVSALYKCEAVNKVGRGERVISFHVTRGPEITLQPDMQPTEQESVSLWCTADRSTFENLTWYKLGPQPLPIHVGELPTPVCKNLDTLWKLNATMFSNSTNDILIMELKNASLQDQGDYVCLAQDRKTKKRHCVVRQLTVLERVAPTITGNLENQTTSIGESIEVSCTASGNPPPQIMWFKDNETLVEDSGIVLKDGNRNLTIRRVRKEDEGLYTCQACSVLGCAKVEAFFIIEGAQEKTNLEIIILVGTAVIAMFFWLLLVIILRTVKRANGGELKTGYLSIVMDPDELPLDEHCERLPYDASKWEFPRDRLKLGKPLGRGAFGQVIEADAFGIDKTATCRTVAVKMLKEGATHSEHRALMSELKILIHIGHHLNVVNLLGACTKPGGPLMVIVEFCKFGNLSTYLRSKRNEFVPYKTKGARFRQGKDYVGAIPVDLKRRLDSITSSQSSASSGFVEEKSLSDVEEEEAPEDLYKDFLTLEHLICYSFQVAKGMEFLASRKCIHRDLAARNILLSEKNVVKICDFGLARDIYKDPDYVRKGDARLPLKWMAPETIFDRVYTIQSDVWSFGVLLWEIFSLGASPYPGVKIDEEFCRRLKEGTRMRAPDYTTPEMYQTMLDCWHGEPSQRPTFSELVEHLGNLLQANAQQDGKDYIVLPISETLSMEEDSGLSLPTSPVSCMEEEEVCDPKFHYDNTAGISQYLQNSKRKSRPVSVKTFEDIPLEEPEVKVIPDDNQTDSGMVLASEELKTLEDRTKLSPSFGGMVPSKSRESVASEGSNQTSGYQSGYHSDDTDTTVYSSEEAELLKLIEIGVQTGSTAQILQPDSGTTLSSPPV
TGFβRI kinase ALK5, sequence (P36897 34-503): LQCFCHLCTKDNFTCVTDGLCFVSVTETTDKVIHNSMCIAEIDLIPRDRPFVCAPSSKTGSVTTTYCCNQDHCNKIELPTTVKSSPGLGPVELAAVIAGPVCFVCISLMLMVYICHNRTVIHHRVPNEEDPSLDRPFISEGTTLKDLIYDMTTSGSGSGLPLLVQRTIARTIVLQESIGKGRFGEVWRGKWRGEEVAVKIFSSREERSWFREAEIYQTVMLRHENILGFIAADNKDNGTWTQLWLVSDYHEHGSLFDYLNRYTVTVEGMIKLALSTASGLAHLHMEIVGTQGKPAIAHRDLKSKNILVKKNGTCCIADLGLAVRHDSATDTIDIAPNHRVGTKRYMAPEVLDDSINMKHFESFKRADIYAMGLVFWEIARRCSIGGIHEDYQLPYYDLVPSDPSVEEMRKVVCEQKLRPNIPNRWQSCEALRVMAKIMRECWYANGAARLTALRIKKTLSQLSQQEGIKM
p38α kinase, sequence (Q16539 whole entry): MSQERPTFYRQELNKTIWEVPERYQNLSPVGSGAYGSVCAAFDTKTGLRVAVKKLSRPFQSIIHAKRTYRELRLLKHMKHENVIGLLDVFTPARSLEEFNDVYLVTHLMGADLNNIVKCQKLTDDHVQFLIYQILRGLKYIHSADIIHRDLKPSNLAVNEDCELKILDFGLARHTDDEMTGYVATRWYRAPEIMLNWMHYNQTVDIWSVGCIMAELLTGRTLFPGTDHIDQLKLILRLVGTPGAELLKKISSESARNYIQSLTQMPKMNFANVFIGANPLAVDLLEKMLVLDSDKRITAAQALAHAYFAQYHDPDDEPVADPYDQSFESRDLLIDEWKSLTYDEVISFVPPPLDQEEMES

Row | Compound | IC50 (TGFβRI kinase ALK5) [µM] | IC50 (recombinant human VEGFR2) [µM] | IC50 (p38α kinase) [µM] | Cmax ([1]; 2 mg/kg, heading: Plasma concentration Cmax) [ng/mL] | Vd/F [1] [L/kg] | AUC [1] [ng·h/mL] | CL/F [1] [mL/min/kg] | half-life [1] [h] | MRT [1] [h]
1 | Cc1cccc(-c2nn(C3CCC3)cc2-c2ccnc(-c3ccc(S(C)(=O)=O)cc3)c2)n1 [Example 1, 4-(1-Cyclobutyl-3-(6-methylpyridin-2-yl)-1H-pyrazol-4-yl)-2-(4-(methylsulfonyl)phenyl)pyridine] | 0.208 | 2.5 | 2.2 | 1830 ± 941 | 1.2 ± 0.437 | 3270 ± 1470 | 11.9 ± 5.2 | 1.23 ± 0.33 | 1.72 ± 0.21
2 | Cc1cccc(-c2nn(C3CC3)cc2-c2ccnc(-c3ccc(S(C)(=O)=O)cc3)c2)n1 [Example 2, 4-(1-Cyclopropyl-3-(6-methylpyridin-2-yl)-1H-pyrazol-4-yl)-2-(4-(methylsulfonyl)phenyl)pyridine] | 0.27 | 4.2 | 1 |  | 0.872 ± 0.536 | 8060 ± 5290 | 5.33 ± 2.65 | 1.99 ± 0.95 | 3.06 ± 0.87
